Reference: PMC10947197, “Acid‐Resistant BODIPY Amino Acids for Peptide‐Based Fluorescence Imaging of GPR54 Receptors in Pancreatic Islets” (Angewandte Chemie (International Ed. in English), 2023)

Columns and labels:
Storage stability (HPLC) = type: physicochemical; settings: 5 months in freezer (-20 °C), powder and 5 mM DMSO solution
Experimental: (§1) BODIPY PLUS (10 µM) in phosph ate buffer salin e (PBS, white bars) an d phosp hat idy lcho lin e li posom e susp ensi ons (gr ey bars). λ exc: 45 0 nm; λem: 51 0 nm.
(§2) V alues pr es ent e d as m ea ns ±S E M ( n= 3) .
(§3) Tr p-BODIPY P LU S (-20 °C, solid)
(§4) Tr p-BODIPY P LU S (-20 °C, DMSO)
(§5) S u p p l emen t ary F i gu re 6 . HP LC tr ac es of T r p-B O DI P Y P LUS aft er 5 m ont hs st or age in t he f r eez er as po wder ( t op) and as 5 mM DMSO s olut i ons ( bot t om ). […]

[1] = Fluorogenic behavior in phosphatidylcholine liposome suspensions; type: physicochemical; settings: PBS vs phosphatidylcholine liposome suspensions; λexc 450 nm, λem 510 nm
Experimental: Figure 1 a) Chemical structure of the Fmoc‐protected Trp‐BODIPY PLUS amino acid for general peptide synthesis. b) Fluorescence emission spectra of Trp‐BODIPY PLUS (25 μM) in phosphate buffer saline (PBS) suspensions with increasing content of phosphatidylcholine liposomes. λ exc: 450 nm. Inset) UV‐irradiated pictograms of Trp‐BODIPY PLUS in hydrophilic (bottom) and hydrophobic (top) environments. c) Peptide sequences synthesized with Trp‐BODIPY and Trp‐BODIPY PLUS, their biological targets, solid supports, protected amino acids and purities after SPPS. RA: Rink Amide, TG: TentaGel, CTC: chlorotrityl, PS: polystyrene,^[a] not determined due to degradation of BODIPY. d) Synthetic scheme and structures of KP‐10 analogues with Trp‐BODIPY PLUS instead of the native Trp (peptide 7) or at the N‐terminal end (peptide 8).
as §1, §2, §3, §4, §5
Sp ectro sco p y mea su rem en ts. […]

[2] = Stability analysis of Trp-BODIPY FlAAs under SPPS conditions; settings: for Stability (purity by HPLC-MS): 70 μM; for Stability (purity by HPLC-MS) / Chemical stability (HPLC-MS): r.t.; for Chemical stability (HPLC-MS): 70 µM;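 on all read-outs here: chemical integrity of the BODIPY-labelled tryptophan amino acids checked after exposure to reagents used in solid-phase peptide synthesis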
Experimental: Next, we studied the stability of Trp‐BODIPY PLUS in TFA and compared it to that of Trp‐BODIPY (Table 2).
Analysis of t he chemical st abilit y of T rp-BO DI PY and T rp-
BODIPY PLUS under conve nt ion al SPPS condit i ons. Amino aci ds were di lut ed w it h
dif f erent rea gent mixt ur es (70 µ M , f inal v olum e 10 0 uL) a nd st irre d at r. t . f or 1 h
( c ondit i ons A-B and E-H) or 5 m i n ( c o ndit i ons C an d D).
Fmoc-T rp -BO DI PY(X)2-OH
En t ry Conditions X = F X = CN

[3] = Optical properties (absorbance, emission, extinction coefficient); type: physicochemical
Text: Supplementary Figure 3. Det er m inat ion of t he ex t inc t i on c oef f ic i ent of T rp-BO DI PY P LUS in EtOH. V alues pr es ent e d as m eans ±S E M ( n= 6) .
S u p p l emen t ary F i gu re 4 . […]
(also on this page, place not known: 0.0 0.1 0.2 0.3 0.4 0.5 0.6 ε: 87,680 M-1cm-1 R2: 0.98 (µM) Optical density (500 nm) Determination the extinction coefficient Trp-BODIPY Values presented means±SEM (n=6). Wavelength (nm) fluorescence (RFU) Relative Supplementary Figure 4. Representative emission spectra Trp-BODIPY PLUS µM) water (black) and dioxane (green). (n=3).) […]
Sp ectro sco p y mea su rem en ts. O pt ical prop ert ies were me asure d in a Synergy H 1 B ioT ek spect rop hot om et er at t he ind icat ed co ncent rat i ons o n 96 or 38 4-we ll p lat es.
A bs or ba nc e and em is s i on s pec t r a wer e det er m i ned in t he r ange of 400– 700 nm ( ev er y 2 nm). F or liposom e exp erime nt s, phosph at idylc hol ine (P C)-bas ed li posom es wer e pur c has ed f r om Lipos om a, dilut ed in PBS, and t r ans f er r ed int o a blac k f lat -bot t om 96-well pl at e f or opt ical measur ement s. […]
Cel l exp eri men t s. W ork wit h hum an per iph eral b loo d leuk ocyt es comp lie d wit h al l releva nt et hical r egu lat io ns and inf orme d conse nt was obt a ine d. T he st udy prot oco l was approv ed by t he Medica l Regi ona l Et hics Commit t ee ( 21-EMREC - 04 1) at t he Univers ity of Edinb urgh. H uman blo od le ukocytes w ere iso late d from hea lthy volunt e ers. Brief ly, whole b loo d was ant i-c o agu lat ed w it h s odium c it r at e [ 0. 4% ( w/ v ) f inal c onc ent r at io n] and c ent r if ug ed at 350 g for 20 m i n. P lat elet-ric h plasma w as r em ov ed and aut o log ous s er um was ge ner at e d by r ec alc if ic at ion wit h CaC l2 ( 20 m M f inal co ncent rat i on). […] 5 %/ 63%/ 7 2. 9% d is c ont i nuo us gr adi ent s . […] 9 % int er f ac e. […]
HE K29 3 cel l s. Immort alize d huma n embry onic ki dney ce lls HE K 293 w ere gro wn i n DM EM wit hout py r uv at e wit h 4. 5 g L-1 of D-gluc os e, F B S , and penic ill in/ s t r ept om y c i n

## CC1=CC(C)=[N+]2C1=C(c1cccc(-c3[nH]c4ccccc4c3C[C@H](NC(=O)OCC3c4ccccc4-c4ccccc43)C(=O)O)c1)c1c(C)cc(C)n1[B-]2(C#N)C#N [Trp-BODIPY PLUS]
Storage stability (HPLC)
  Chemical stability on storage (in words): chemical stability for long‐term storage
[1]
  Fluorogenic behavior (in words): strong fluorogenic behavior
[2]; 2% N2H4 in DMF, 60 min
  Stability (purity by HPLC-MS): > 95%
[2]; 95% TFA, 2.5% DTT, 60 min, DCM
  Stability (purity by HPLC-MS): > 95%
[2]; 95% TFA, 2.5% H2O, 60 min, DCM
  Stability (purity by HPLC-MS): > 95%
[2]; 95% TFA, 2.5% TIS, 60 min, DCM
  Stability (purity by HPLC-MS): > 95%
[2]; 95% TFA, 5 min, DCM
  Stability (purity by HPLC-MS): > 95%
[2]; 95% TFA, 1 h
  Stability in TFA (in words): fully resistant to TFA even after 1 h
[2]; 95% TFA, 60 min, DCM
  Stability (purity by HPLC-MS): > 95%
[2]; I2 (5 eq) in MeOH, 60 min
  Stability (purity by HPLC-MS): 6%
[2]; Pd(PPh3)4 (0.1 eq), PhSiH3 (10 eq), 60 min, DCM
  Stability (purity by HPLC-MS): > 95%
[2]; Supplementary Table 2 entry A: 1% TFA, 2.5% DTT, 1 h
  Chemical stability (HPLC-MS): > 95%
[2]; Supplementary Table 2 entry B: 5% TFA, 2.5% DTT, 1 h
  Chemical stability (HPLC-MS): > 95%
[2]; Supplementary Table 2 entry C: 95% TFA, 2.5% DTT, 5 min
  Chemical stability (HPLC-MS): > 95%
[2]; Supplementary Table 2 entry D: 20% piperidine: DMF, 5 min
  Chemical stability (HPLC-MS): > 93%
[2]; Supplementary Table 2 entry E: 5% NaHCO3 (aq), 1 h
  Chemical stability (HPLC-MS): > 95%
[2]; Supplementary Table 2 entry F: 5% Na2CO3 (aq), 1 h
  Chemical stability (HPLC-MS): > 95%
[2]; Supplementary Table 2 entry G: 1% DIPEA: DMF, 1 h
  Chemical stability (HPLC-MS): > 95%
[2]; Supplementary Table 2 entry H: 0.1 M HOBt: TFE, 1 h
  Chemical stability (HPLC-MS): > 95%
[2]; TBAF (3 eq), 60 min, DCM
  Stability (purity by HPLC-MS): > 95%
[2]; presence of iodine
  Stability to iodine (in words): degraded in the presence of iodine
[3]
  Absorbance maximum wavelength: 500 nm
  Emission maximum wavelength: 515 nm
[3]; in EtOH, optical density at 500 nm, n=6, fit to Beer's law
  Extinction coefficient: 87,680 M-1cm-1
